Measurements reported in patent US9303036B2, “Crystalline asenapine hydrochloride salt forms” (Sandoz AG, priority 2011, dated 2016).
Where a name gives a salt, the structure may show the parent alone.

Tests used:
[1] = Water uptake by dynamic vapor absorption; format: physicochemical
Procedure: Asenapine HCl dihydrate of the invention can absorb about 1.5% of additional water at 95% relative humidity at 25° C. and most of the water uptake occurs above 80% relative humidity as shown by dynamic vapor absorption.

[2] = Aqueous solubility by suspension equilibration in water, concentration in filtrate by HPLC; format: physicochemical
Procedure: The aqueous solubility was determined after 40 hours of suspension equilibration at 25° C. Thereafter, the suspension was filtered and the concentration in the liquid phase was determined by HPLC. The excellent solubility of the Asenapine hydrochloride dihydrate of the invention may render the salt to an excellent alternative to known salts of Asenapine, especially for a fast dissolving formulation.
An HPLC instrument from TSP (UV3000, AS3000, P4000, SCM1000 using software version 4.1) was used in combination with a column from Waters (XTerra MS 018, 4.6×100 mm, 5 μm (CC01A)). The mobile phase A was H2O/ACN 95:5 with 0.1% TFA, and mobile phase B was H2O/ACN 5:95 with 0.1% TFA. The reference concentration was 0.09 mg/mL. The Asenapine peak appeared at a retention time.
4.0-4.1 min. The method was isocratic with 70% mobile phase A and 30% mobile phase B at 0 min and after 10 min at a flow of 1.0 mL/min. The injection volume was 10 μL and the detection wavelength 202 nm.
The aqueous solubility of Asenapine salts is determined in water after 48 hours of suspension equilibration at 25° C. 200 mg of Asenapine hydrochloride is suspended in 1.5 ml of bidistilled water and the resulting suspension is placed on a laboratory shaker at 500 rpm. Thereafter, the suspension is filtered and the concentration in the liquid phase was determined by HPLC as described above. […]

[3] = 23° C., pH=4.4; cited from earlier work
[4] = Solubility of Asenapine maleate in saturated solution (Funke et al., literature); format: physicochemical; details: water (saturated solution), thermodynamic from solid, converted from the maleate salt value at 23° C., pH=4.4, read-out: free base solubility
Source text: Certain crystalline addition salts of Asenapine, for instance a fumarate (EP 0569096), salts with sulfonic acids (WO 98/54186), and a pamoate or hemipamoate salt (EP 0569096), are described in the literature. The pamoate salt is disclosed to be amorphous and the hemipamoate salt is a mixture of amorphous and crystalline phase, wherein the palmitate is described as oil. The marketed form is the maleate salt, which is disclosed to exist in polymorphic forms (WO 2006/106135). The known Asenapine salts have a low solubility in water.

| SMILES | additional water absorbed ([1]; 95% relative humidity at 25° C., most uptake above 80% relative humidity) | hygroscopicity ([1]; dynamic vapor absorption, 25° C.) | solubility at 2 days ([2]; pH 4, thermodynamic from solid, 25° C., 600 rpm, two days of equilibration, at a pH of 4.0, read-out: aqueous solubility (concentration of Asenapine in the filtered solution by HPLC)) | solubility at 40 h ([2]; thermodynamic from solid, at 25° C., calculated as free base, after 40 hours of suspension equilibration, HPLC) | concentration of saturated solution [3] | solubility [4] |
| --- | --- | --- | --- | --- | --- | --- |
| CN1C[C@H]2c3ccccc3Oc3ccc(Cl)cc3[C@@H]2C1 (relative stereo) [Asenapine HCl dihydrate, trans-5-chloro-2-methyl-2,3,3a,12b-tetrahydro-1H-dibenz[2,3:6,7]oxepino[4,5-c]pyrrole] | about 1.5% | not, or only very slightly hygroscopic | 24.2 mg/mL | 24.2 mg/mL |  |  |
| CN1C[C@@H]2c3ccccc3Oc3ccc(Cl)cc3[C@H]2C1 (relative stereo) [maleate salt of Asenapine, trans-5-chloro-2-methyl-2,3,3a,12b-tetrahydro-1H-dibenz[2,3:6,7]oxepino[4,5-c]pyrrole] |  |  |  |  | 5800 µg/mL | ~4.1 mg/mL |
